Data on 13 compounds can be found in PubChem BioAssay (NCI).

Among the test systems are ACHN renal; CAKI-1 renal; CCRF-CEM leukemia; HT29 colon; IGROV1 ovarian; LOX IMVI melanoma; MALME-3M melanoma; NCI/ADR-RES ovarian; OVCAR-8 ovarian; RPMI-8226 leukemia.
Assay in all cases: growth of human tumour cells (NCI), 48 h

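All cell lines were grown in 96-well plates and treated with compound for 48 hours. TGI denotes the concentration required for complete inhibition of growth.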

As for `CC(=O)O[C@H]1[C@H](OC(=O)CC(C)(O)CC(=O)O)C[C@]2(C)C3=C(CCC2C1(C)C)[C@]1(C)CC[C@H]([C@H]2CC[C@H](C(C)(C)O)OC2O)[C@@]1(C)[C@@H](O)C3` (stereo not given in full), the TGI with ACHN renal is 31.2 µM; with CAKI-1 renal, 36.7 µM; in the test with CCRF-CEM leukemia, 49.7 µM; in the test with HT29 colon, 30.2 µM; in the test on IGROV1 ovarian it was 30.8 µM; in the test on LOX IMVI melanoma it was 35.9 µM. The TGI was 57.3 µM in the test with MALME-3M melanoma, above 100 µM in the test with NCI/ADR-RES ovarian, 35.4 µM in the test with OVCAR-8 ovarian and 43.8 µM in the test on RPMI-8226 leukemia.

With `CCCCCCCCCCCCCCCCCCN(C)CC(COP(=O)([O-])OCC[N+](C)(C)C)OC` (stereo not given), the TGI was determined as 48.8 µM in the test on ACHN renal; 20.9 µM with CAKI-1 renal; 24.3 µM in the test with CCRF-CEM leukemia; 15 µM with HT29 colon; 6.63 µM in the test on IGROV1 ovarian; 26 µM in the test on LOX IMVI melanoma. The TGI was 43.3 µM in the test on MALME-3M melanoma, above 100 µM in the test with NCI/ADR-RES ovarian, 44.8 µM in the test with OVCAR-8 ovarian and 18.6 µM with RPMI-8226 leukemia.

Regarding `Cc1ccccc1S(=O)(=O)Nn1cnc2ccc(S(=O)(=O)Nc3ccc(Cl)cc3)cc2c1=O`, the TGI with ACHN renal, in the test on CAKI-1 renal, in the test with CCRF-CEM leukemia, with HT29 colon, in the test with IGROV1 ovarian and in the test with LOX IMVI melanoma was above 100 µM throughout. The TGI in the test with MALME-3M melanoma, in the test on NCI/ADR-RES ovarian, with OVCAR-8 ovarian and in the test with RPMI-8226 leukemia was above 100 µM throughout.

In the case of `Cc1ccnc(NC(NC(=O)c2ccccc2)(C(F)(F)F)C(F)(F)F)c1`, the TGI with ACHN renal, with CAKI-1 renal, with CCRF-CEM leukemia, in the test on HT29 colon, with IGROV1 ovarian and in the test with LOX IMVI melanoma was above 100 µM in each case. Also, the TGI in the test on MALME-3M melanoma, in the test with NCI/ADR-RES ovarian, with OVCAR-8 ovarian and with RPMI-8226 leukemia was above 100 µM throughout.

Consider `Oc1ccc(-c2nc3ccc(Cl)cc3s2)cc1`, for which the TGI with ACHN renal is above 100 µM; in the test with CAKI-1 renal, 36.5 µM; in the test with CCRF-CEM leukemia, 24.4 µM; with HT29 colon it was 34.6 µM; with IGROV1 ovarian, 32.4 µM; in the test with LOX IMVI melanoma it was 45.9 µM. Moreover, the TGI with MALME-3M melanoma came to 36 µM; in the test on NCI/ADR-RES ovarian it was 57.1 µM; with OVCAR-8 ovarian, 39 µM; in the test on RPMI-8226 leukemia, 47.3 µM.

Take `Cc1cc(=O)oc2c(CNC(Cc3ccccc3)C(=O)O)c(O)ccc12` (stereo not given): the TGI with ACHN renal, in the test with CAKI-1 renal, in the test with CCRF-CEM leukemia, with HT29 colon, in the test with IGROV1 ovarian and in the test with LOX IMVI melanoma was above 100 µM in each case. Moreover, the TGI with MALME-3M melanoma, with NCI/ADR-RES ovarian, with OVCAR-8 ovarian and in the test with RPMI-8226 leukemia was above 100 µM throughout.

As to `C/C(=N\NC(=S)NCCCNC(=S)N/N=C(\C)c1ccccn1)c1ccccn1`, the TGI with ACHN renal was 16.6 µM; in the test on CAKI-1 renal, above 49.9 µM; with CCRF-CEM leukemia it was 9.4 µM; in the test with HT29 colon it was above 100 µM; with IGROV1 ovarian, 37.4 µM; in the test on LOX IMVI melanoma it was above 51.2 µM. In addition, the TGI is 17.5 µM with MALME-3M melanoma, 8.19 µM in the test with NCI/ADR-RES ovarian, 10.9 µM with OVCAR-8 ovarian and above 100 µM with RPMI-8226 leukemia.

Regarding `O=C1CSC(c2cccc([N+](=O)[O-])c2)N1c1ccc(-n2c(-c3ccccc3)nc3ccccc3c2=O)cc1` (stereo not given), the TGI with ACHN renal, in the test on CAKI-1 renal, in the test with CCRF-CEM leukemia, in the test with HT29 colon, with IGROV1 ovarian and with LOX IMVI melanoma was above 100 µM each time. For the same compound, the TGI in the test with MALME-3M melanoma, with NCI/ADR-RES ovarian, in the test on OVCAR-8 ovarian and in the test on RPMI-8226 leukemia was above 100 µM throughout.

For `CCOC(=O)CCC(NC(=O)c1ccc(OCc2ccc3nc(-c4ccccc4)c(Cl)nc3c2)cc1)C(=O)OCC` (stereo not given), the TGI in the test on ACHN renal was above 31.6 µM; in the test with CAKI-1 renal it was above 100 µM; in the test with CCRF-CEM leukemia, above 31.6 µM; with HT29 colon, above 31.6 µM; with IGROV1 ovarian, above 31.6 µM; in the test with LOX IMVI melanoma, above 100 µM. Also, the TGI was above 100 µM with MALME-3M melanoma, above 31.6 µM in the test with NCI/ADR-RES ovarian, 25.3 µM in the test on OVCAR-8 ovarian and above 31.6 µM in the test on RPMI-8226 leukemia.

For `N#C/C(N)=C(\C#N)NC(=O)C(=O)N/C(C#N)=C(\N)C#N`, the TGI with ACHN renal, with CAKI-1 renal, with CCRF-CEM leukemia, in the test with HT29 colon, in the test with IGROV1 ovarian and in the test with LOX IMVI melanoma was above 100 µM each time. Besides, the TGI in the test with MALME-3M melanoma, with NCI/ADR-RES ovarian, in the test with OVCAR-8 ovarian and in the test with RPMI-8226 leukemia was above 100 µM in each case.

In the case of `O=[N+]([O-])c1ccc(N/N=C/c2ccc(OCCCCCCCCCCCO)cc2)c([N+](=O)[O-])c1`, the TGI was above 71.7 µM in the test on ACHN renal; 8.94 µM with CAKI-1 renal; above 44.5 µM in the test with CCRF-CEM leukemia; above 100 µM in the test with HT29 colon; 67.4 µM in the test on IGROV1 ovarian; 59.7 µM in the test on LOX IMVI melanoma. The TGI in the test on MALME-3M melanoma is 4.61 µM; in the test with NCI/ADR-RES ovarian, 9.51 µM; in the test on OVCAR-8 ovarian it was 9.86 µM; in the test with RPMI-8226 leukemia, above 100 µM.

For `CC(=O)c1cc2ccccc2oc1=O`, the TGI with ACHN renal, in the test with CAKI-1 renal, in the test on CCRF-CEM leukemia, with HT29 colon, in the test on IGROV1 ovarian and in the test with LOX IMVI melanoma was above 100 µM each time. Moreover, the TGI with MALME-3M melanoma, in the test with NCI/ADR-RES ovarian, in the test with OVCAR-8 ovarian and with RPMI-8226 leukemia was above 100 µM throughout.

Consider `O=C1Oc2cc(O)cc(/C=C/c3ccc(O)cc3)c2[C@@]12c1c(O)cc(O)cc1OC2c1cccc(O)c1` (stereo not given in full), for which the TGI was above 100 µM in the test on ACHN renal; above 100 µM in the test on CAKI-1 renal; 56.5 µM in the test with CCRF-CEM leukemia; 65 µM in the test with HT29 colon; 31 µM in the test with IGROV1 ovarian; 75.3 µM with LOX IMVI melanoma. For the same compound, the TGI is above 100 µM in the test on MALME-3M melanoma, above 100 µM in the test on NCI/ADR-RES ovarian, above 100 µM in the test with OVCAR-8 ovarian and 37.1 µM with RPMI-8226 leukemia.
